Measurements as given in publication PMC3914206.

What was measured:
Type in all cases: binding
panel of 442 kinases [1] = target: T1, panel of 442 kinases (Homo sapiens, UniProt P42336, H1047L); settings: Compound Concentration 10 µM
T1 construct: purchased KINOMEscan
Text: (§1) We assessed the selectivity of members of this scaffold using the KINOMEscan methodology across a near comprehensive panel of 442 kinases [[18,27]].

panel of 442 kinases [2] = target: T2, panel of 442 kinases (Homo sapiens, UniProt O14578); settings: Compound Concentration 10 µM
T2 construct: purchased KINOMEscan
Text: as §1

panel of 442 kinases [3] = target: T3, panel of 442 kinases (Homo sapiens, UniProt P09769); settings: Compound Concentration 10 µM
T3 construct: purchased KINOMEscan
Text: as §1

panel of 442 kinases [4] = target: T4, panel of 442 kinases (Homo sapiens, UniProt Q9H0K1); settings: kinase SIK2; compound concentration 10 µM
T4 construct: purchased KINOMEscan
Text: as §1

T3 sequence (P09769 whole entry): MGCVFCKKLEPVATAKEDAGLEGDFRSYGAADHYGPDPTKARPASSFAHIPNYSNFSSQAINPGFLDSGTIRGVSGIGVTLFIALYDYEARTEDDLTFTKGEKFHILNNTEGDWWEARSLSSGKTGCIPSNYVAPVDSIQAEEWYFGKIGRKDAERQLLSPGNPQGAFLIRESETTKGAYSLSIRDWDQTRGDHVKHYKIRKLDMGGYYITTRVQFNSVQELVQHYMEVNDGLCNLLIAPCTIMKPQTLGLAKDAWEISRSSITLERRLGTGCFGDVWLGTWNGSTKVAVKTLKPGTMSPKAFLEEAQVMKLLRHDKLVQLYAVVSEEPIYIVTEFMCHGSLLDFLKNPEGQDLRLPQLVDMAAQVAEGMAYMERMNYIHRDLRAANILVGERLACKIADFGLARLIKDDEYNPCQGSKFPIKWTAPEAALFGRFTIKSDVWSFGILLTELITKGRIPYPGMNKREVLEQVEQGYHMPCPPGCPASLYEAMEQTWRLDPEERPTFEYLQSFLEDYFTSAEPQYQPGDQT
T2 sequence (O14578 whole entry): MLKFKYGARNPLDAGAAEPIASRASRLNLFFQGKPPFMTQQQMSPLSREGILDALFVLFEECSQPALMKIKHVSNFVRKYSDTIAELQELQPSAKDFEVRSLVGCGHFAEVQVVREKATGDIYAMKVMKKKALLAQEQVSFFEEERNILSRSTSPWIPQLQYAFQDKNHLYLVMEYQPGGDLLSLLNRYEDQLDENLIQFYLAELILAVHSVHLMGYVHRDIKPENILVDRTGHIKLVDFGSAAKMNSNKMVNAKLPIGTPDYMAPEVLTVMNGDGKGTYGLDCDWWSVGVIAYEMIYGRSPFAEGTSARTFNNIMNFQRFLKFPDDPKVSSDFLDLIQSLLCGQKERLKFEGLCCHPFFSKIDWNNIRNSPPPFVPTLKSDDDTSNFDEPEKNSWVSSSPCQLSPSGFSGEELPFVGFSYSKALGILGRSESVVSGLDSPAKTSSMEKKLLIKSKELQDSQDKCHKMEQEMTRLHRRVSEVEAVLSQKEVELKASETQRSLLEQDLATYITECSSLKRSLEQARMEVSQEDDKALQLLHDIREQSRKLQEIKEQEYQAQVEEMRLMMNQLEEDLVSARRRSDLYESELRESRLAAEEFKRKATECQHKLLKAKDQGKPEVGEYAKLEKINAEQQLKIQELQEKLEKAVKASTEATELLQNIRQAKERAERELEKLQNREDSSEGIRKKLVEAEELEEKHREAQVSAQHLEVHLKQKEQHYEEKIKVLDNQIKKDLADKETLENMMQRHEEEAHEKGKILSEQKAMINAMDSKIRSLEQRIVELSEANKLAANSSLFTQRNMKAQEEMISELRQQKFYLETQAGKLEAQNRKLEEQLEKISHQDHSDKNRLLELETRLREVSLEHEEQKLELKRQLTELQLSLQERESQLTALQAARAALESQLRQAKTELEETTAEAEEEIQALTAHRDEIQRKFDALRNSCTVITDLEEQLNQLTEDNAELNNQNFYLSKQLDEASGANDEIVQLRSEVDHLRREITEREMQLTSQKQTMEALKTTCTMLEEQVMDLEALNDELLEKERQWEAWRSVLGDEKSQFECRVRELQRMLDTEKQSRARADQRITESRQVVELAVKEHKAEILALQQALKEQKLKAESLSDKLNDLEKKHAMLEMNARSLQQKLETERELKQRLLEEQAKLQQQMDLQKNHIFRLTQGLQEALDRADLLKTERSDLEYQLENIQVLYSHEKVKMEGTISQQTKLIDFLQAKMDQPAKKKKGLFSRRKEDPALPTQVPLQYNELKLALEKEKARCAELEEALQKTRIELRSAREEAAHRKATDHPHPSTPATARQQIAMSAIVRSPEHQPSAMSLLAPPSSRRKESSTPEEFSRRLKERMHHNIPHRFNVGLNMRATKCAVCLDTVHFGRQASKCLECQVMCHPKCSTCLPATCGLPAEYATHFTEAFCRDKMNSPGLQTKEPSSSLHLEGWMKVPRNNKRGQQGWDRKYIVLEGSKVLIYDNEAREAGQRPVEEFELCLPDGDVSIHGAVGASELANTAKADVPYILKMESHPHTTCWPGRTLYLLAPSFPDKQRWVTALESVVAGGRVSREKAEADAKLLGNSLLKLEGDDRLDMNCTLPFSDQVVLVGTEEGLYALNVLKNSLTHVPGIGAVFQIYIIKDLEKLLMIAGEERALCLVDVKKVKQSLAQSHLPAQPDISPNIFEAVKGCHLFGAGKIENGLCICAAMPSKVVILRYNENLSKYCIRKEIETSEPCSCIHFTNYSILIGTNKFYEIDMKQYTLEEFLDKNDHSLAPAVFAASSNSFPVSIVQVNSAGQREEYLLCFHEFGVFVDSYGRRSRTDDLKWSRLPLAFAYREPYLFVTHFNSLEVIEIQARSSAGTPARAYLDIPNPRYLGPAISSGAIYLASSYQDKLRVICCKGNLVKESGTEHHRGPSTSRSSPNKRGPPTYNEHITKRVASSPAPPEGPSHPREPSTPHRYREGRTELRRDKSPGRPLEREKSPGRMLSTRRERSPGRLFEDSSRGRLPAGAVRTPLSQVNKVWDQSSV
T1 sequence (P42336 whole entry H1047L): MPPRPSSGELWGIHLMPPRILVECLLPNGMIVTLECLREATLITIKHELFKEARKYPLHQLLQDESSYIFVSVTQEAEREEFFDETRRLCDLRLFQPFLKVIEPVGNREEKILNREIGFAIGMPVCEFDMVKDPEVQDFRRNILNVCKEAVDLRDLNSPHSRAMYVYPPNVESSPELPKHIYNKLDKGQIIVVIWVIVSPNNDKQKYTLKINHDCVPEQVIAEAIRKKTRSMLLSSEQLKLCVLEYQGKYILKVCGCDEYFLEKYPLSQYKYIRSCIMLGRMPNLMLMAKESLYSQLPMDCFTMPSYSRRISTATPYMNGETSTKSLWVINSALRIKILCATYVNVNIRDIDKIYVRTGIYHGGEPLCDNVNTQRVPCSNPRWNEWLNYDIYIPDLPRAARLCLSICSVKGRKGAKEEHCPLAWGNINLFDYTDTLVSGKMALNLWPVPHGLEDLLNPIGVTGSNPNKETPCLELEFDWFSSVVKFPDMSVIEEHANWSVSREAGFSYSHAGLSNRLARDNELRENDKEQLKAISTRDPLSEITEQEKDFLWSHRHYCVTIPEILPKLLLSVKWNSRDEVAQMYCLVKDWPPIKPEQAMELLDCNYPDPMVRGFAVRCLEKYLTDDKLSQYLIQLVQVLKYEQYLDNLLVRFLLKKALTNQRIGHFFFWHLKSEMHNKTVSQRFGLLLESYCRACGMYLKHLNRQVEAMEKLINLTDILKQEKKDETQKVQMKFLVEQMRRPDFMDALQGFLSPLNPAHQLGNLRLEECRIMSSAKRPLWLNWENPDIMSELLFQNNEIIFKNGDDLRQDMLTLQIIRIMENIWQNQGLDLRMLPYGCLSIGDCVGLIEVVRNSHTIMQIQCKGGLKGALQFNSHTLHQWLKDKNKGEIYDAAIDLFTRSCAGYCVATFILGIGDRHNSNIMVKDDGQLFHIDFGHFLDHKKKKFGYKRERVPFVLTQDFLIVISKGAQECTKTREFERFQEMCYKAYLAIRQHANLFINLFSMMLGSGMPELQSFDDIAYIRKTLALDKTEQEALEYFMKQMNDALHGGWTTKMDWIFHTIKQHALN
T4 sequence (Q9H0K1 whole entry): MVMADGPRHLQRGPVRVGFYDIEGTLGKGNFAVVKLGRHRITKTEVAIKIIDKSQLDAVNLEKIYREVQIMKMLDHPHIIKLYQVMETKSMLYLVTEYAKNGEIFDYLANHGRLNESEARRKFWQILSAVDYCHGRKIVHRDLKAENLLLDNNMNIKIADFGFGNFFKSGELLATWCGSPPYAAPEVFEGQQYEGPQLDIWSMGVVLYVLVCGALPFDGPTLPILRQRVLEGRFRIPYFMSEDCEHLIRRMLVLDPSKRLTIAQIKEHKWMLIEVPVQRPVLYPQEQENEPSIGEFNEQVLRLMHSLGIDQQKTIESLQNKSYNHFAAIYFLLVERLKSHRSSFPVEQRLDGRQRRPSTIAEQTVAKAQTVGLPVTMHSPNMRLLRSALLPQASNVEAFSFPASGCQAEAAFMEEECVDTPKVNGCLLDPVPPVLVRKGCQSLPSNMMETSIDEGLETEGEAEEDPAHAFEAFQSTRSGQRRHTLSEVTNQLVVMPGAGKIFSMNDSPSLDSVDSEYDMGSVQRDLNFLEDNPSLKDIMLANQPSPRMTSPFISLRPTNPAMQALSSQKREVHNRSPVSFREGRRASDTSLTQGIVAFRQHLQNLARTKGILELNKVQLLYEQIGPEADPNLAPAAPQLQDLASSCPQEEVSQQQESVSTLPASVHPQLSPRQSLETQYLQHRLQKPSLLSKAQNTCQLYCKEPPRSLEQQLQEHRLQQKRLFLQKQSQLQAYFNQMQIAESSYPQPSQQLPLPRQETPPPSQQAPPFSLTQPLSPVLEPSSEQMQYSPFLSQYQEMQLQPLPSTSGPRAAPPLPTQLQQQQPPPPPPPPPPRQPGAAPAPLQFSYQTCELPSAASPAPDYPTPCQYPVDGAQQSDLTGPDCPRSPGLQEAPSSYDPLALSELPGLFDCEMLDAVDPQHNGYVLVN

SMILES	KINOMEscan: PIK3CA(H1047L) (panel of 442 kinases [1])	KINOMEscan: CIT (panel of 442 kinases [2])	KINOMEscan: FGR (panel of 442 kinases [3])	% Ctrl, SIK2 (panel of 442 kinases [4])
CCOc1cc(C(=O)N2CCC(N3CCN(C)CC3)CC2)ccc1Nc1ncc2c(n1)N(C1CCCC1)c1ccccc1C(=O)N2C [Compound 26]	90	98	99	100 % Ctrl
COc1cc(C(=O)N2CCC(N3CCN(C)CC3)CC2)ccc1Nc1ncc2c(n1)N1CCc3cccc(c31)C(=O)N2C [Compound 24]	94	1.5	79	81 % Ctrl
COc1cc(C(=O)N2CCC(N3CCN(C)CC3)CC2)ccc1Nc1ncc2c(n1)N(C)c1ccccc1C(=O)N2C [15 (LRRK2-IN-1)]	20	99	84	98 % Ctrl
COc1cc(C(=O)N2CCC(N3CCN(C)CC3)CC2)ccc1Nc1ncc2c(n1)N(C1CCCC1)c1ccccc1C(=O)N2C [Compound 25, 11-cyclopentyl-2-((2-methoxy-4-(4-(4-methylpiperazin-1-yl)piperidine-1-carbonyl)phenyl)amino)-5-methyl-5H-benzo[e]pyrimido[5,4-b][1,4]diazepin-6(11H)-one]	100	66	98	95 % Ctrl
